# Values joined by “and” are separate entries in the source; they are usually repeats but may differ in a detail not shown here. Identical values can stand only once.
# T1: Solute carrier family 22 member 2 (Homo sapiens, UniProt O15244)
# T1 sequence (O15244 whole entry): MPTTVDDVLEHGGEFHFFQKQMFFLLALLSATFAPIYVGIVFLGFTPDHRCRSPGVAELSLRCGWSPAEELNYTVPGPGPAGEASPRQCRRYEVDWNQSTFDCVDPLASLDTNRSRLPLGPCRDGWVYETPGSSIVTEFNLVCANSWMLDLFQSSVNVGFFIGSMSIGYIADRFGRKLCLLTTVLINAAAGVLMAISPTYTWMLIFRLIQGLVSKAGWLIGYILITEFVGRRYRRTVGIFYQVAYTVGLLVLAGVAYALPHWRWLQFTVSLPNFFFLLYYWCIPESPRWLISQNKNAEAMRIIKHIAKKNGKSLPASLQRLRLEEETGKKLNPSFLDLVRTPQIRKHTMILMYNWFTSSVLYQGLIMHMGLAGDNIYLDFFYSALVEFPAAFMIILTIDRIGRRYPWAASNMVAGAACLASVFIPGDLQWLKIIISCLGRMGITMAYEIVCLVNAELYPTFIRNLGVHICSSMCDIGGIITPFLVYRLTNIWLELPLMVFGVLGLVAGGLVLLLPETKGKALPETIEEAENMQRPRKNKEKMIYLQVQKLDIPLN
# T2: Solute carrier family 22 member 1 (Homo sapiens, UniProt O15245)
# T2 sequence (O15245 whole entry): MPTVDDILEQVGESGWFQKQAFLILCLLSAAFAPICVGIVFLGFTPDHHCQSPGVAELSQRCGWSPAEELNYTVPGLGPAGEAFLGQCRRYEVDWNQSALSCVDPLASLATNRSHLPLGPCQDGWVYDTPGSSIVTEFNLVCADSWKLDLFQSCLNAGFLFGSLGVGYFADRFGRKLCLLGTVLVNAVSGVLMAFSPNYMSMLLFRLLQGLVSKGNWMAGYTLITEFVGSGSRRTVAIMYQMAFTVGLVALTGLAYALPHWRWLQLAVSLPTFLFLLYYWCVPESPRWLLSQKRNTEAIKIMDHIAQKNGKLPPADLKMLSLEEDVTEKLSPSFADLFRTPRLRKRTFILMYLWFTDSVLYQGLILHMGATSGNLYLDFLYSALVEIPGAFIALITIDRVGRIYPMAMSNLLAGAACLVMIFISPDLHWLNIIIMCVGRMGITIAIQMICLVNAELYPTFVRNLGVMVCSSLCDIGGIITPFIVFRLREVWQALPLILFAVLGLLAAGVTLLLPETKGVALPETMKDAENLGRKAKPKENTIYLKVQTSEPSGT
# B1: Solute carrier family 22 member 2 (Homo sapiens) (protein)
# chain: T1 sequence (O15244 whole entry)
# Experiments:
# [1] = biological target: T1, Solute carrier family 22 member 2; assay: TP_TRANSPORTER: inhibition of TEA uptake in Xenopus laevis oocytes; assay type: functional, cell-based, Oocyte
# [2] = biological target: T2, Solute carrier family 22 member 1; assay: (§1) TP_TRANSPORTER: uptake in Xenopus laevis oocytes; assay type: functional, cell-based; conditions: oocyte
# [3] = substrate: C=C[C@H]1C[N@@]2CC[C@H]1C[C@H]2[C@H](O)c1ccnc2ccc(OC)cc12; assay: TP_TRANSPORTER: uptake (electrogenesis) in Xenopus laevis oocytes; assay type: functional, cell-based, Oocyte
# [4] = substrate: CNC(=O)c1cccnc1; assay: as §1; assay type: functional, cell-based, Oocyte
# [5] = substrate: CC[N+](CC)(CC)CC; assay: cells, lysate or membranes named
# [6] = substrate: C[N+](C)(C)CCO; assay: cells, lysate or membranes named
Molecule,Ki [1],Activity [2],further results
CNC(=O)c1cccnc1 [NICOTINYL METHYLAMIDE],266 µM,substrate [not saturable],
C[n+]1ccc(-c2ccccc2)cc1,2.4 µM,substrate [not saturable],
CCCCC[N+](CCCCC)(CCCCC)CCCCC [TETRAPENTYLAMMONIUM],1.5 µM,,
CC(C)C(c1ccccc1)C(O)CC[N+]1(C)CCCCC1 (centres undefined) [MEPIPERPHENIDOL BROMIDE],4.8 µM,,
COc1cc(C(O)CNC(C)C)ccc1O (centres undefined) [METIPRENALINE],570 µM,,
CC[N+](CC)(CC)CC [TETRYLAMMONIUM],,substrate [not saturable],
CCN1/C(=C/c2ccc3ccccc3[n+]2CC)C=Cc2ccccc21,0.1 µM,,
CC[n+]1c(CC2C=C(C)N=C(c3ccccc3)N2C)ccc2ccccc21 (centres undefined) [Cyanine-863],0.21 µM,,
B1,,,Km [3]: 2.6 µM; Km [4]: 300 µM; Km [5]: 31 µM and 76 µM; Km [6]: 190 µM and 210 µM
